According to US6875786B2, “Thrombopoietin mimetics” (SmithKline Beecham Corporation, priority 2001, dated 2005):

Tested on: 32D-mpl cells
Experiment: proliferation of 32D-mpl cells
Format: cell-based
Experimental: The compound of Example 1, promoted the proliferation of 32D-mpl cells at a concentration of 0.03 to 30 uM.

## CC1=NN(c2ccc(C)c(C)c2)C(=O)C1=CNc1cccc(-c2cccc(C(=O)O)c2)c1O [Example 1, 3′-{[1-(3.4-Dimethylphenyl)-3-methyl-5-oxo-1,5-dihydropyrazol-4-ylidenemethyl]amino}-2′-hydroxybiphenyl-3-carboxylic Acid]
  EC50: 670 nM
Relative to TPO maximum
  % TPOmax: 85%
